Laboratory results from patent US10570184B2, “GLP-1/glucagon receptor co-agonists for medical use” (Novo Nordisk A/S, priority 2014, dated 2020).
Starred links: 1 amine or outer side, 2 acyl side, 3 side chain; linkers in the order of their positions; H or OH if unused. Non-standard residues stand in square brackets, D forms with d. Residues, ends and D or L forms follow the SMILES beside them. Groups on a side chain read outwards from the residue. *: point of attachment. C18 diacid = O=C(O)CCCCCCCCCCCCCCCCC(=O)*; γGlu = O=C(O)[C@H](CCC(=O)[*:2])N[*:1]; Ac4c = NC1(C(=O)O)CCC1; AEEA = NCCOCCOCC(=O)O; Aib = CC(C)(N)C(=O)O

molecular target: T1, human GLP-1 receptor (Homo sapiens, UniProt P43220); experiment: Assay (II)(a) GLP-1 receptor binding, 125I-GLP-1 displacement SPA on BHK membranes; conditions: without presence of serum albumin; read-out: GLP-1R IC50 (nM) [Assay (II)(a)]
T1 construct: expressed in transfected cells; host or cells: membranes of BHK cells (parent BHKTS13), clone FCW467-12A
Outline: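 Membranes from BHK cells (clone FCW467-12A) stably expressing human GLP-1R were incubated with serially diluted compounds (8×10EE-13 to 8×10EE-7 M before addition) and [125I]-GLP-1-(7-36)NH2 with WGA SPA beads, 2 h at 30° C, pH 7.4. IC50 taken from displacement by non-linear regression. Run at ≤0.001% or 2.0% final serum albumin.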

T1 sequence (P43220 24-463): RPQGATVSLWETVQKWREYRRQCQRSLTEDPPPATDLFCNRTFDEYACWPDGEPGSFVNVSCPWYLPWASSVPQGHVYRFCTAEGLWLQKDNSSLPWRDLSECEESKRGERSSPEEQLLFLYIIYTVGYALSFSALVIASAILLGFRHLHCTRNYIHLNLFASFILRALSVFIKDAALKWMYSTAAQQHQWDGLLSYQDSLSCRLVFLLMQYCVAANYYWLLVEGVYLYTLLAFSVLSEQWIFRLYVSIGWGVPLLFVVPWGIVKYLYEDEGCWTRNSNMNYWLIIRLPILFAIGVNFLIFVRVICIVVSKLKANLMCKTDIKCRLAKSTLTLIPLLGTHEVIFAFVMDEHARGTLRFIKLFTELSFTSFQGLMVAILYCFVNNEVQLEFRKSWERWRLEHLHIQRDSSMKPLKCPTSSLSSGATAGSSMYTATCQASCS

Q: Which IC50 does the source give for CC[C@H](C)[C@H](NC(=O)[C@H](CC(C)C)NC(=O)[C@H](Cc1c[nH]c2ccccc12)NC(=O)[C@H](CCC(N)=O)NC(=O)[C@@H](NC(=O)[C@H](Cc1ccccc1)NC(=O)[C@H](CC(=O)O)NC(=O)[C@H](CCCNC(=N)N)NC(=O)[C@H](C)NC(=O)[C@H](CCCNC(=N)N)NC(=O)[C@H](CCCNC(=N)N)NC(=O)[C@H](C)NC(=O)[C@H](CC(=O)O)NC(=O)[C@H](CC(C)C)NC(=O)[C@H](Cc1ccc(O)cc1)NC(=O)[C@H](CCCCN)NC(=O)[C@H](CO)NC(=O)[C@H](CC(C)C)NC(=O)[C@H](CC(=O)O)NC(=O)[C@H](CO)NC(=O)[C@@H](NC(=O)[C@H](Cc1ccccc1)NC(=O)[C@@H](NC(=O)CNC(=O)[C@H](CCC(N)=O)NC(=O)C(C)(C)NC(=O)[C@@H](N)Cc1c[nH]cn1)[C@@H](C)O)[C@@H](C)O)C(C)C)C(=O)N[C@@H](CC(N)=O)C(=O)N[C@@H](CCCCNC(=O)CC[C@H](NC(=O)CC[C@H](NC(=O)COCCOCCNC(=O)COCCOCCNC(=O)CC[C@H](NC(=O)CCCCCCCCCCCCCCCCC(=O)O)C(=O)O)C(=O)O)C(=O)O)C(N)=O [Chem. 20, N^ε29-[(4S)-4-carboxy-4-[[(4S)-4-carboxy-4-[[2-[2-[2-[[2-[2-[2-[[(4S)-4-carboxy-4-(17-carboxyheptadecanoylamino)butanoyl]amino]ethoxy]ethoxy]acetyl]amino]ethoxy]ethoxy]acetyl]amino]butanoyl]amino]butanoyl]-[Aib2,Leu10,Ala16,Arg20,Ile27,Lys29]-Glucagon amide] (H-H[Aib]QGTFTSDLSKYLDARRARDFVQWLINK([γGlu-γGlu-AEEA-AEEA-γGlu-C18 diacid])-NH2; N-terminus assumed) here?
A: 0.1 nM

Q: With CC[C@H](C)[C@H](NC(=O)[C@H](CC(C)C)NC(=O)[C@H](Cc1c[nH]c2ccccc12)NC(=O)[C@H](C)NC(=O)[C@@H](NC(=O)[C@H](Cc1ccccc1)NC(=O)[C@H](CC(=O)O)NC(=O)[C@H](CCCNC(=N)N)NC(=O)[C@H](C)NC(=O)[C@H](CCCNC(=N)N)NC(=O)[C@H](CCCNC(=N)N)NC(=O)[C@H](C)NC(=O)[C@H](CC(=O)O)NC(=O)[C@H](CC(C)C)NC(=O)[C@H](Cc1ccc(O)cc1)NC(=O)[C@H](CCCCN)NC(=O)[C@H](CO)NC(=O)[C@H](Cc1ccc(O)cc1)NC(=O)[C@H](CC(=O)O)NC(=O)[C@H](CO)NC(=O)[C@@H](NC(=O)[C@H](Cc1ccccc1)NC(=O)[C@@H](NC(=O)CNC(=O)[C@H](CCC(N)=O)NC(=O)C(C)(C)NC(=O)[C@@H](N)Cc1c[nH]cn1)[C@@H](C)O)[C@@H](C)O)C(C)C)C(=O)N[C@@H](CCCCNC(=O)CC[C@H](NC(=O)CC[C@H](NC(=O)COCCOCCNC(=O)COCCOCCNC(=O)CC[C@H](NC(=O)CCCCCCCCCCCCCCCCC(=O)O)C(=O)O)C(=O)O)C(=O)O)C(=O)N[C@H](C(N)=O)[C@@H](C)O [Chem. 32, N^ε28-[(4S)-4-carboxy-4-[[(4S)-4-carboxy-4-[[2-[2-[2-[[2-[2-[2-[[(4S)-4-carboxy-4-(17-carboxyheptadecanoylamino)butanoyl]amino]ethoxy]ethoxy]acetyl]amino]ethoxy]ethoxy]acetyl]amino]butanoyl]amino]butanoyl]-[Aib2,Ala16,Arg20,Ala24,Ile27,Lys28]-Glucagon amide] (H-H[Aib]QGTFTSDYSKYLDARRARDFVAWLIK([γGlu-γGlu-AEEA-AEEA-γGlu-C18 diacid])T-NH2) as the molecule, how does the IC50 read?
A: 0.3 nM

Q: How did the IC50 turn out when CC[C@H](C)[C@H](NC(=O)[C@H](CC(C)C)NC(=O)[C@H](Cc1c[nH]c2ccccc12)NC(=O)[C@H](C)NC(=O)[C@@H](NC(=O)[C@H](Cc1ccccc1)NC(=O)[C@H](CC(=O)O)NC(=O)[C@H](CCC(N)=O)NC(=O)[C@H](C)NC(=O)[C@H](CCCNC(=N)N)NC(=O)[C@H](CCCNC(=N)N)NC(=O)[C@H](CO)NC(=O)[C@H](CCC(=O)O)NC(=O)[C@H](CC(C)C)NC(=O)[C@H](Cc1ccc(O)cc1)NC(=O)[C@H](CCCCN)NC(=O)[C@H](CO)NC(=O)[C@H](Cc1ccc(O)cc1)NC(=O)[C@H](CC(=O)O)NC(=O)[C@H](CO)NC(=O)[C@@H](NC(=O)[C@H](Cc1ccccc1)NC(=O)[C@@H](NC(=O)CNC(=O)[C@H](CCC(N)=O)NC(=O)C(C)(C)NC(=O)[C@@H](N)Cc1c[nH]cn1)[C@@H](C)O)[C@@H](C)O)C(C)C)C(=O)N[C@@H](CCCCNC(=O)CC[C@H](NC(=O)CC[C@H](NC(=O)COCCOCCNC(=O)COCCOCCNC(=O)CC[C@H](NC(=O)CCCCCCCCCCCCCCCCC(=O)O)C(=O)O)C(=O)O)C(=O)O)C(=O)N[C@H](C(N)=O)[C@@H](C)O [Chem. 34, N^ε28-[(4S)-4-carboxy-4-[[(4S)-4-carboxy-4-[[2-[2-[2-[[2-[2-[2-[[(4S)-4-carboxy-4-(17-carboxyheptadecanoylamino)butanoyl]amino]ethoxy]ethoxy]acetyl]amino]ethoxy]ethoxy]acetyl]amino]butanoyl]amino]butanoyl]-[Aib2,Glu15,Ala24,Ile27,Lys28]-Glucagon amide] (H-H[Aib]QGTFTSDYSKYLESRRAQDFVAWLIK([γGlu-γGlu-AEEA-AEEA-γGlu-C18 diacid])T-NH2) was run?
A: 2.2 nM

Q: With CC[C@H](C)[C@H](NC(=O)[C@H](CC(C)C)NC(=O)[C@H](Cc1c[nH]c2ccccc12)NC(=O)[C@H](CCC(N)=O)NC(=O)[C@@H](NC(=O)[C@H](Cc1ccccc1)NC(=O)[C@H](CC(=O)O)NC(=O)[C@H](CCC(N)=O)NC(=O)[C@H](C)NC(=O)[C@H](CCCNC(=N)N)NC(=O)[C@H](CCCNC(=N)N)NC(=O)[C@H](C)NC(=O)[C@H](CC(=O)O)NC(=O)[C@H](CC(C)C)NC(=O)[C@H](Cc1ccc(O)cc1)NC(=O)[C@H](CCCCN)NC(=O)[C@H](CO)NC(=O)[C@H](CC(C)C)NC(=O)[C@H](CC(=O)O)NC(=O)[C@H](CO)NC(=O)[C@@H](NC(=O)[C@H](Cc1ccccc1)NC(=O)[C@@H](NC(=O)CNC(=O)[C@H](CCC(N)=O)NC(=O)C(C)(C)NC(=O)[C@@H](N)Cc1c[nH]cn1)[C@@H](C)O)[C@@H](C)O)C(C)C)C(=O)N[C@@H](CCCCNC(=O)COCCOCCNC(=O)COCCOCCNC(=O)CC[C@H](NC(=O)CC[C@H](NC(=O)CC[C@H](NC(=O)CCCCCCCCCCCCCCCCC(=O)O)C(=O)O)C(=O)O)C(=O)O)C(=O)N[C@H](C(N)=O)[C@@H](C)O [Chem. 7, N^ε28-[2-[2-[2-[[2-[2-[2-[[(4S)-4-carboxy-4-[[(4S)-4-carboxy-4-[[(4S)-4-carboxy-4-(17-carboxyheptadecanoylamino)butanoyl]amino]butanoyl]amino]butanoyl]amino]ethoxy]ethoxy]acetyl]amino]ethoxy]ethoxy]acetyl]-[Aib2,Leu10,Ala16,Ile27,Lys28]-Glucagon amide] (H-H[Aib]QGTFTSDLSKYLDARRAQDFVQWLIK([AEEA-AEEA-γGlu-γGlu-γGlu-C18 diacid])T-NH2; N-terminus assumed) as the molecule, how does the IC50 read?
A: 0.3 nM

Q: With CC[C@H](C)[C@H](NC(=O)[C@H](CC(C)C)NC(=O)[C@H](Cc1c[nH]c2ccccc12)NC(=O)[C@H](CCC(N)=O)NC(=O)[C@@H](NC(=O)[C@H](Cc1ccccc1)NC(=O)[C@H](CCC(=O)O)NC(=O)[C@H](CCCNC(=N)N)NC(=O)[C@H](C)NC(=O)[C@H](CCCNC(=N)N)NC(=O)[C@H](CCCNC(=N)N)NC(=O)[C@H](CO)NC(=O)[C@H](CCC(=O)O)NC(=O)[C@H](CC(C)C)NC(=O)[C@H](Cc1ccc(O)cc1)NC(=O)[C@H](CCCNC(=N)N)NC(=O)[C@H](CO)NC(=O)[C@H](CC(C)C)NC(=O)[C@H](CC(=O)O)NC(=O)[C@H](CO)NC(=O)[C@@H](NC(=O)[C@H](Cc1ccccc1)NC(=O)[C@@H](NC(=O)CNC(=O)[C@H](CCC(N)=O)NC(=O)C1(NC(=O)[C@@H](N)Cc2c[nH]cn2)CCC1)[C@@H](C)O)[C@@H](C)O)C(C)C)C(=O)N[C@@H](CCCCNC(=O)CC[C@H](NC(=O)CC[C@H](NC(=O)COCCOCCNC(=O)COCCOCCNC(=O)CC[C@H](NC(=O)CC[C@H](NC(=O)CCCCCCCCCCCCCCCCC(=O)O)C(=O)O)C(=O)O)C(=O)O)C(=O)O)C(=O)N[C@H](C(N)=O)[C@@H](C)O [Chem. 17, N^ε28-[(4S)-4-carboxy-4-[[(4S)-4-carboxy-4-[[2-[2 [2-[[2-[2-[2-[[(4S)-4-carboxy-4-[[(4S)-4-carboxy-4-(17-carboxyheptadecanoylamino)butanoyl]amino]butanoyl]amino]ethoxy]ethoxy]acetyl]amino]ethoxy]ethoxy]acetyl]amino]butanoyl]amino]butanoyl]-[Acb2,Leu10,Arg12,Glu15,Arg20,Glu21,Ile27,Lys28]-Glucagon amide] (H-H[Ac4c]QGTFTSDLSRYLESRRAREFVQWLIK([γGlu-γGlu-AEEA-AEEA-γGlu-γGlu-C18 diacid])T-NH2) as the molecule, how does the IC50 read?
A: 0.1 nM

Q: How did the IC50 turn out when CC[C@H](C)[C@H](NC(=O)[C@H](CC(C)C)NC(=O)[C@H](Cc1c[nH]c2ccccc12)NC(=O)[C@H](CCC(N)=O)NC(=O)[C@@H](NC(=O)[C@H](Cc1ccccc1)NC(=O)[C@H](CCC(=O)O)NC(=O)[C@H](CCCNC(=N)N)NC(=O)[C@H](C)NC(=O)[C@H](CCCNC(=N)N)NC(=O)[C@H](CCCNC(=N)N)NC(=O)[C@H](C)NC(=O)[C@H](CC(=O)O)NC(=O)[C@H](CC(C)C)NC(=O)[C@H](Cc1ccc(O)cc1)NC(=O)[C@H](CCCCN)NC(=O)[C@H](CO)NC(=O)[C@H](CC(C)C)NC(=O)[C@H](CC(=O)O)NC(=O)[C@H](CO)NC(=O)[C@@H](NC(=O)[C@H](Cc1ccccc1)NC(=O)[C@@H](NC(=O)CNC(=O)[C@H](CCC(N)=O)NC(=O)C(C)(C)NC(=O)[C@@H](N)Cc1c[nH]cn1)[C@@H](C)O)[C@@H](C)O)C(C)C)C(=O)N[C@@H](CC(N)=O)C(=O)N[C@@H](CCCCNC(=O)CC[C@H](NC(=O)CC[C@H](NC(=O)COCCOCCNC(=O)COCCOCCNC(=O)CC[C@H](NC(=O)CCCCCCCCCCCCCCCCC(=O)O)C(=O)O)C(=O)O)C(=O)O)C(N)=O [Chem. 21, N^ε29-[(4S)-4-carboxy-4-[[(4S)-4-carboxy-4-[[2-[2-[2-[[2-[2-[2-[[(4S)-4-carboxy-4-(17-carboxyheptadecanoylamino)butanoyl]amino]ethoxy]ethoxy]acetyl]amino]ethoxy]ethoxy]acetyl]amino]butanoyl]amino]butanoyl]-[Aib2,Leu10,Ala16,Arg20,Glu21,Ile27,Lys29]-Glucagon amide] (H-H[Aib]QGTFTSDLSKYLDARRAREFVQWLINK([γGlu-γGlu-AEEA-AEEA-γGlu-C18 diacid])-NH2; N-terminus assumed) was run?
A: 0.1 nM
